Here are results for eleven compounds from PubChem BioAssay AID180 (DTP/NCI, 2004).

Values joined by “and” are separate entries in the source; they are usually repeats but may differ in a detail not shown here. Identical values can stand only once.

For this assay, the system named is BDF1 mice, Adenocarcinoma 755 s.c., tumor weight T/C. The assay is described as follows: NCI In Vivo Anticancer Drug Screen. Data for tumor model Adenocarcinoma 755 (subcutaneous) in B6D2F1 (BDF1) mice. As to conditions: endpoint: mean tumor weight, higher = larger tumour. Here is the method: The antitumor activity of compounds was measured in mice bearing transplantable tumors. Survival or tumor size were measured and the results are expressed as the measurement made in the treated group (T) divided by the measurement made in the vehicle treated control group (C). The tumor model used in this assay is Adenocarcinoma 755 (subcutaneous) in B6D2F1 (BDF1) mice

Setting [1] is: dose: 30.0 mg/kg/injection, schedule: Q01DX011 (ip), vehicle: saline.
The mark [2] stands for this setting: dose: 15.0 mg/kg/injection, schedule: Q01DX011 (ip), vehicle: methylcellulose (MC).
Setting [3] is: dose: 125.0 mg/kg/injection, schedule: Q01DX011 (ip), vehicle: carboxymethylcellulose (CMC).
Where [4] appears, read: dose: 250.0 mg/kg/injection, schedule: Q01DX011 (ip), vehicle: carboxymethylcellulose (CMC).

With `c1nc(SC2=NCCN2)c2[nH]cnc2n1`, the T/C (as a rule, the ratio of treated to control) is 104 % of control (dose: 0.22 mg/kg/injection, schedule: Q01DX011 (ip), vehicle: saline); 72 % of control (dose: 0.45 mg/kg/injection, schedule: Q01DX011 (ip), vehicle: saline); 100 % of control (dose: 0.45 mg/kg/injection, schedule: Q01DX011 (oral), vehicle: saline); 71 % of control (dose: 0.65 mg/kg/injection, schedule: Q01DX011 (ip), vehicle: saline); 61 % of control (dose: 0.9 mg/kg/injection, schedule: Q01DX011 (ip), vehicle: saline); 73 % of control (dose: 0.9 mg/kg/injection, schedule: Q01DX011 (oral), vehicle: saline). Besides, the T/C runs as follows: (dose: 1.3 mg/kg/injection, schedule: Q01DX011 (ip), vehicle: saline) 74 % of control; (dose: 1.8 mg/kg/injection, schedule: Q01DX011 (ip), vehicle: saline) 15 % of control; (dose: 1.8 mg/kg/injection, schedule: Q01DX011 (oral), vehicle: saline) 48 % of control; (dose: 2.6 mg/kg/injection, schedule: Q01DX011 (ip), vehicle: saline) 23 % of control; (dose: 2.62 mg/kg/injection, schedule: Q01DX011 (ip), vehicle: saline) 4 % of control and 8 % of control; (dose: 3.6 mg/kg/injection, schedule: Q01DX011 (oral), vehicle: saline) 21 % of control. Moreover, the T/C is, setting by setting: (dose: 5.25 mg/kg/injection, schedule: Q01DX011 (ip), vehicle: saline) 2 % of control and 3 % of control; (dose: 5.25 mg/kg/injection, schedule: Q01DX011 (oral), vehicle: saline) 9 % of control; (dose: 8.0 mg/kg/injection, schedule: Q01DX001 (ip), vehicle: saline) 38 % of control; (dose: 10.5 mg/kg/injection, schedule: Q01DX011 (ip), vehicle: saline) 1 % of control and 2 % of control; (dose: 10.5 mg/kg/injection, schedule: Q01DX011 (oral), vehicle: saline) 2 % of control; (dose: 16.0 mg/kg/injection, schedule: Q01DX001 (ip), vehicle: saline) 57 % of control. The T/C (dose: 20.0 mg/kg/injection, schedule: Q01DX011 (ip), vehicle: saline) was 31 % of control; the T/C (dose: 21.0 mg/kg/injection, schedule: Q01DX011 (ip), vehicle: saline) is 2 % of control; the T/C (dose: 21.0 mg/kg/injection, schedule: Q01DX011 (oral), vehicle: saline) is 1 % of control; the T/C under setting [1] is 14 % of control; the T/C (dose: 31.0 mg/kg/injection, schedule: Q01DX001 (ip), vehicle: saline) was 29 % of control; the T/C (dose: 62.0 mg/kg/injection, schedule: Q01DX001 (ip), vehicle: saline) is 38 % of control.
As for `CCCCN=NNc1nc[nH]c1C(N)=O`, the T/C was 124 % of control (dose: 16.0 mg/kg/injection, schedule: Q01DX011 (ip), vehicle: methylcellulose (MC)); 75 % of control (dose: 31.0 mg/kg/injection, schedule: Q01DX011 (ip), vehicle: methylcellulose (MC)); 79 % of control (dose: 62.0 mg/kg/injection, schedule: Q01DX011 (ip), vehicle: methylcellulose (MC)).
As to `ClCCn1cnc2c(SCc3ccccc3Cl)ncnc21`, the T/C (dose: 0.5 mg/kg/injection, schedule: Q01DX011 (ip), vehicle: other) is 91 % of control; the T/C (dose: 0.5 mg/kg/injection, schedule: Q01DX011 (oral), vehicle: other) was 74 % of control; the T/C (dose: 1.0 mg/kg/injection, schedule: Q01DX011 (ip), vehicle: other) is 84 % of control; the T/C (dose: 2.0 mg/kg/injection, schedule: Q01DX011 (ip), vehicle: other) is 42 % of control and 47 % of control; the T/C (dose: 2.0 mg/kg/injection, schedule: Q01DX011 (oral), vehicle: other) was 109 % of control; the T/C (dose: 4.0 mg/kg/injection, schedule: Q01DX011 (oral), vehicle: other) is 75 % of control and 81 % of control. The T/C reads like this: (dose: 8.0 mg/kg/injection, schedule: Q01DX011 (ip), vehicle: other) 3 % of control; (dose: 8.0 mg/kg/injection, schedule: Q01DX011 (oral), vehicle: other) 25 % of control and 32 % of control; (dose: 15.0 mg/kg/injection, schedule: Q01DX011 (oral), vehicle: other) 5 % of control and 13 % of control; (dose: 30.0 mg/kg/injection, schedule: Q01DX011 (oral), vehicle: other) 1 % of control; (dose: 100.0 mg/kg/injection, schedule: Q01DX011 (ip), vehicle: carboxymethylcellulose (CMC)) 3 % of control.
Turning to `CCN(CC)CCC(=O)N1CCN(C(=O)CCN(CC)CC)CC1`, the T/C by setting is: (dose: 3.8 mg/kg/injection, schedule: Q01DX011 (ip), vehicle: methylcellulose (MC)) 110 % of control; (dose: 7.5 mg/kg/injection, schedule: Q01DX011 (ip), vehicle: methylcellulose (MC)) 113 % of control; under setting [2], 71 % of control; (dose: 30.0 mg/kg/injection, schedule: Q01DX011 (ip), vehicle: methylcellulose (MC)) 79 % of control; under setting [1], 119 % of control; (dose: 60.0 mg/kg/injection, schedule: Q01DX011 (ip), vehicle: saline) 105 % of control.
For `CC(=O)[C@H]1CC[C@H]2[C@@H]3C[C@H](C)C4=CC(=O)CC[C@]4(C)[C@H]3[C@@H](O)C[C@]12C`, the T/C was 56 % of control and 63 % of control (dose: 50.0 mg/kg/injection, schedule: Q01DX011 (sc), vehicle: steriod suspending solution); 59 % of control and 60 % of control (dose: 100.0 mg/kg/injection, schedule: Q01DX011 (sc), vehicle: steriod suspending solution); 15 % of control and 34 % of control (dose: 200.0 mg/kg/injection, schedule: Q01DX011 (sc), vehicle: steriod suspending solution).
On to `C=CC(O)CN1CC1(C)C` (centres undefined) (tested in a mixture with another compound), for which the T/C is 99 % of control (dose: 1.9 mg/kg/injection, schedule: Q01DX011 (ip), vehicle: methylcellulose (MC)); 107 % of control (dose: 3.75 mg/kg/injection, schedule: Q01DX011 (ip), vehicle: methylcellulose (MC)); 75 % of control under setting [2].
As for `NC(=O)CSc1nc(N)nc2nc[nH]c12`, the T/C is 113 % of control (dose: 63.0 mg/kg/injection, schedule: Q01DX011 (ip), vehicle: carboxymethylcellulose (CMC)); 67 % of control under setting [3]; 48 % of control under setting [4]; 33 % of control (dose: 500.0 mg/kg/injection, schedule: Q01DX011 (ip), vehicle: carboxymethylcellulose (CMC)).
As for `CCCCn1cnc2c(SCc3ccc(Br)cc3)nc(N)nc21`, the T/C is, setting by setting: (dose: 12.5 mg/kg/injection, schedule: Q01DX011 (ip), vehicle: methylcellulose (MC)) 47 % of control; (dose: 25.0 mg/kg/injection, schedule: Q01DX011 (ip), vehicle: methylcellulose (MC)) 66 % of control; (dose: 50.0 mg/kg/injection, schedule: Q01DX011 (ip), vehicle: methylcellulose (MC)) 82 % of control; (dose: 100.0 mg/kg/injection, schedule: Q01DX011 (ip), vehicle: methylcellulose (MC)) 49 % of control.
Regarding `C=C(Cl)CN(CC)CCO`, the T/C (dose: 50.0 mg/kg/injection, schedule: Q01DX011 (ip), vehicle: other) was 77 % of control; the T/C (dose: 100.0 mg/kg/injection, schedule: Q01DX011 (ip), vehicle: other) is 69 % of control; the T/C (dose: 200.0 mg/kg/injection, schedule: Q01DX011 (ip), vehicle: other) was 76 % of control.
With `c1ccn(-c2nc(-n3cccc3)nc(-n3cccc3)n2)c1`, the T/C by setting is: (dose: 31.25 mg/kg/injection, schedule: Q01DX011 (ip), vehicle: carboxymethylcellulose (CMC)) 72 % of control; (dose: 62.5 mg/kg/injection, schedule: Q01DX011 (ip), vehicle: carboxymethylcellulose (CMC)) 86 % of control; under setting [3], 73 % of control; under setting [4], 17 % of control and 38 % of control.
For the compound `COc1ccc(C[n+]2cc([O-])on2)cc1`, the T/C reads like this: (dose: 0.39 mg/kg/injection, schedule: Q01DX011 (ip), vehicle: carboxymethylcellulose (CMC)) 75 % of control; (dose: 0.78 mg/kg/injection, schedule: Q01DX011 (ip), vehicle: carboxymethylcellulose (CMC)) 80 % of control; (dose: 1.56 mg/kg/injection, schedule: Q01DX011 (ip), vehicle: carboxymethylcellulose (CMC)) 63 % of control; (dose: 3.0 mg/kg/injection, schedule: Q01DX011 (ip), vehicle: carboxymethylcellulose (CMC)) 70 % of control; (dose: 6.0 mg/kg/injection, schedule: Q01DX011 (ip), vehicle: carboxymethylcellulose (CMC)) 89 % of control; (dose: 6.25 mg/kg/injection, schedule: Q01DX011 (ip), vehicle: carboxymethylcellulose (CMC)) 57 % of control. Moreover, the T/C was 52 % of control (dose: 12.0 mg/kg/injection, schedule: Q01DX011 (ip), vehicle: carboxymethylcellulose (CMC)); 51 % of control (dose: 12.5 mg/kg/injection, schedule: Q01DX011 (ip), vehicle: carboxymethylcellulose (CMC)); 67 % of control (dose: 24.0 mg/kg/injection, schedule: Q01DX011 (ip), vehicle: carboxymethylcellulose (CMC)).
